How the values were obtained:
barnyardgrass (ECHCG) = assay: Test 3 on herbicidal effects against weeds and phytotoxicity by upland soil treatment; assay type: in vivo, Echinochloa crus-galli; details: 28th day
Text: (§1) In a plastic pot of 14 cm in length×23 cm in width×8 cm in depth, upland soil was filled, and seeds of soybean (GLXMA), corn (ZEAMX), Ipomoea lacunosa L. (IPOLA) and velvetleaf (ABUTH) were sown and covered with soil. A wettable powder prepared in accordance with Formulation Example 1 was weighed so that the active ingredients became the prescribed amounts, diluted with water and uniformly applied to the soil surface by means of a small size spray at a rate of 500 liters per 1 hectare. Thereafter, cultivation was carried out in a greenhouse, and on the 28th day after the treatment, the herbicidal effects and phytotoxicity were examined in accordance with the standards as identified in Table 15.
(§2) The test on herbicidal effects and phytotoxicity against corn (ZEAMX), barnyardgrass (ECHCG), common chickweed (STEME) and common lambsquater (CHEAL) was carried out in the same manner as the above Test Example 1.

italian ryegrass (LOLMU) = assay: Test 4 on herbicidal effects against weeds and phytotoxicity by upland soil treatment; assay type: in vivo; details: 28th day
Text: as §1
(§3) The test on herbicidal effects and phytotoxicity against wheat (TRZAW), italian ryegrass (LOLMU), common chickweed (STEME) and common lambsquater (CHEAL) was carried out in the same manner as the above Test Example 1.

common chickweed (STEME) [1] = assay: Test 3 on herbicidal effects against weeds and phytotoxicity by upland soil treatment; assay type: in vivo, Stellaria media; details: 28th day
Text: as §1, §2

common chickweed (STEME) [2] = assay: Test 2 on herbicidal effects against weeds and phytotoxicity by upland soil treatment; assay type: in vivo, Stellaria media; details: 28th day
Text: as §1
(§4) The test on herbicidal effects and phytotoxicity against wheat (TRZAW), common chickweed (STEME) and Persian speedwell (VERPE) was carried out in the same manner as the above Test Example 1.

common chickweed (STEME) [3] = assay: Test 4 on herbicidal effects against weeds and phytotoxicity by upland soil treatment; assay type: in vivo, Stellaria media; details: 28th day
Text: as §1, §3

[4] = test system: Persian speedwell (VERPE); assay: Test 2 on herbicidal effects against weeds and phytotoxicity by upland soil treatment; assay type: in vivo; details: 28th day
Text: as §1, §4

[5] = test system: common lambsquater (CHEAL); assay: Test 3 on herbicidal effects against weeds and phytotoxicity by upland soil treatment; assay type: in vivo, Chenopodium album; details: 28th day
Text: as §1, §2

corn (ZEAMX) [6] = assay: Test on effects of reducing phytotoxicity against corn by upland soil treatment; assay type: in vivo; details: 21st day
Procedure: In a plastic pot of 11 cm in length×11 cm in width×11 cm in depth, upland soil was filled, and seeds of corn (ZEAMX) were sown and covered with soil. A wettable powder prepared in accordance with Formulation Example 1 was weighed so that the active ingredients would be the prescribed amounts, diluted with water and uniformly applied to the soil surface by means of a small size spray at a rate of 500 liter per 1 hectare. Then, cultivation was carried out in a greenhouse, and on the 21st day after the treatment, the phytotoxicity against corn was examined in accordance with the standards as identified in Table 15.

soybean (GLXMA) [7] = assay: Test on herbicidal effects against weeds and phytotoxicity by foliage treatment in upland field; assay type: in vivo; details: 21st day
Procedure: (§5) In a plastic pot of 11 cm in length×11 cm in width×11 cm in depth, the upland soil was filled, and seeds of corn (ZEAMX), soybean (GLXMA), greenfoxtail (SETVI), shattercane (SORVU), redroot pigweed (AMARE), Ipomoea lacunosa L. (IPOLA) and velvetleaf (ABUTH) were sown and covered with soil.
(§6) Then, cultivation was carried out in a greenhouse for 10 days. Then, a wettable powder prepared in accordance with Formulation Example 1 was weighed so that active ingredients would be the prescribed amounts, […] spray at a rate of 500 liter per 1 hectare. Thereafter, cultivation was carried out in a greenhouse, and on the 21st day after the treatment, the herbicidal effects and phytotoxicity were examined in accordance with the standards as identified in Table 15.

corn (ZEAMX) [8] = assay: as above; assay type: in vivo; details: 21st day
Procedure: as §5, §6

soybean (GLXMA) [9] = assay: Test 1 on herbicidal effects against weeds and phytotoxicity by upland soil treatment; assay type: in vivo; details: 28th day
Procedure: (§7) In a plastic pot of 14 cm in length×23 cm in width×8 cm in depth, upland soil was filled, and seeds of soybean (GLXMA), corn (ZEAMX), Ipomoea lacunosa L. (IPOLA) and velvetleaf (ABUTH) were sown and covered with soil. […] Thereafter, cultivation was carried out in a greenhouse, and on the 28th day after the treatment, the herbicidal effects and phytotoxicity were examined in accordance with the standards as identified in Table 15.

[10] = test system: Ipomoea lacunosa L. (IPOLA); assay: as above; assay type: in vivo; details: 400 gai/ha, 28th day
Text: as §1

velvetleaf (ABUTH) = assay: as above; assay type: in vivo, Abutilon theophrasti; details: 400 gai/ha, 28th day
Text: as §1

corn (ZEAMX) [11] = assay: as above; assay type: in vivo; details: 28th day
Procedure: as §7

wheat (TRZAW) [12] = assay: Test 2 on herbicidal effects against weeds and phytotoxicity by upland soil treatment; assay type: in vivo; details: 28th day
Text: as §1, §4

wheat (TRZAW) [13] = assay: Test 4 on herbicidal effects against weeds and phytotoxicity by upland soil treatment; assay type: in vivo; details: 1000 gai/ha, 28th day
Text: as §1, §3

Cn1nc(C(F)(F)F)c(CS(=O)(=O)C2=NOC(C)(C)C2)c1OC(F)F [3-0054, 3-[(5-difluoromethoxy-1-methyl-3-trifluoromethylpyrazol-4-yl)methylsulfonyl]-4,5-dihydro-5,5-dimethylisoxazole]
herbicidal effect ECHCG (barnyardgrass (ECHCG); 62.5 gai/ha): 10 (Herbicidal effect or phytotoxicity of 100%) | herbicidal effect LOLMU (italian ryegrass (LOLMU); 50 gai/ha): 8 (Herbicidal effect or phytotoxicity of at least 80% and less than 90%) | herbicidal effect STEME (common chickweed (STEME) [1]; 62.5 gai/ha): 5 (Herbicidal effect or phytotoxicity of at least 50% and less than 60%) | herbicidal effect STEME (common chickweed (STEME) [2]; 18.8 gai/ha): 5 (Herbicidal effect or phytotoxicity of at least 50% and less than 60%) | herbicidal effect STEME (common chickweed (STEME) [3]; 50 gai/ha): 4 (Herbicidal effect or phytotoxicity of at least 40% and less than 50%) | herbicidal effect VERPE ([4]; 18.8 gai/ha): 7 (Herbicidal effect or phytotoxicity of at least 70% and less than 80%) | herbicidal effect CHEAL ([5]; 62.5 gai/ha): 4 (Herbicidal effect or phytotoxicity of at least 40% and less than 50%)

CCNc1nc(Cl)nc(NC(C)C)n1 [Atrazine]
phytotoxicity against corn ZEAMX (corn (ZEAMX) [6]; 2500 gai/ha): 0 (Herbicidal effect or phytotoxicity of at least 0% and less than 10%)

CC1COc2ccccc2N1C(=O)C(Cl)Cl (stereo not shown) [Benoxacor]
phytotoxicity against corn ZEAMX (corn (ZEAMX) [6]; 50 gai/ha): 0 (Herbicidal effect or phytotoxicity of at least 0% and less than 10%)

CC(C)N1C(=O)c2ccccc2NS1(=O)=O [Bentazone]
phytotoxicity GLXMA (soybean (GLXMA) [7]; 400 gai/ha): 0 (Herbicidal effect or phytotoxicity of at least 0% and less than 10%) | phytotoxicity ZEAMX (corn (ZEAMX) [8]; 400 gai/ha): 0 (Herbicidal effect or phytotoxicity of at least 0% and less than 10%)

C[C@H](NC(=O)[C@H](C)NC(=O)[C@@H](N)CCP(C)(=O)O)C(=O)O [Bilanafos]
phytotoxicity GLXMA (soybean (GLXMA) [7]; 1000 gai/ha): 9 (Herbicidal effect or phytotoxicity of at least 90% and less than 100%) | phytotoxicity ZEAMX (corn (ZEAMX) [8]; 1000 gai/ha): 9 (Herbicidal effect or phytotoxicity of at least 90% and less than 100%)

COc1cc(OC)nc(Oc2cccc(Oc3nc(OC)cc(OC)n3)c2C(=O)O)n1 [Bispyribac-sodium]
phytotoxicity GLXMA (soybean (GLXMA) [7]; 12.5 gai/ha): 9 (Herbicidal effect or phytotoxicity of at least 90% and less than 100%) | phytotoxicity ZEAMX (corn (ZEAMX) [8]; 12.5 gai/ha): 0 (Herbicidal effect or phytotoxicity of at least 0% and less than 10%)

CCOC(=O)c1ccccc1S(=O)(=O)NC(=O)Nc1nc(Cl)cc(OC)n1 [Chlorimuron-ethyl]
phytotoxicity GLXMA (soybean (GLXMA) [7]; 6.3 gai/ha): 0 (Herbicidal effect or phytotoxicity of at least 0% and less than 10%) | phytotoxicity ZEAMX (corn (ZEAMX) [8]; 6.3 gai/ha): 4 (Herbicidal effect or phytotoxicity of at least 40% and less than 50%)

CC1(C)CON(Cc2ccccc2Cl)C1=O [Clomazone]
phytotoxicity GLXMA (soybean (GLXMA) [9]; 200 gai/ha): 0 (Herbicidal effect or phytotoxicity of at least 0% and less than 10%)

COC[C@H](C)N(C(=O)CCl)c1c(C)csc1C [Dimethenamid-P]
herbicidal effect IPOLA [10]: 5 (Herbicidal effect or phytotoxicity of at least 50% and less than 60%) | herbicidal effect ABUTH (velvetleaf (ABUTH)): 7 (Herbicidal effect or phytotoxicity of at least 70% and less than 80%)

CN(C)C(=O)Nc1ccc(Cl)c(Cl)c1 [Diuron]
phytotoxicity GLXMA (soybean (GLXMA) [9]; 800 gai/ha): 8 (Herbicidal effect or phytotoxicity of at least 80% and less than 90%) | phytotoxicity ZEAMX (corn (ZEAMX) [11]; 800 gai/ha): 8 (Herbicidal effect or phytotoxicity of at least 80% and less than 90%)

COC(=O)CSc1cc(/N=c2\sc(=O)n3n2CCCC3)c(F)cc1Cl [Fluthiacet-methyl]
phytotoxicity GLXMA (soybean (GLXMA) [7]; 10 gai/ha): 0 (Herbicidal effect or phytotoxicity of at least 0% and less than 10%) | phytotoxicity ZEAMX (corn (ZEAMX) [8]; 10 gai/ha): 0 (Herbicidal effect or phytotoxicity of at least 0% and less than 10%)

CC(C)c1ccc(NC(=O)N(C)C)cc1 [Isoproturon]
herbicidal effect STEME (common chickweed (STEME) [2]; 375 gai/ha): 6 (Herbicidal effect or phytotoxicity of at least 60% and less than 70%) | herbicidal effect VERPE ([4]; 375 gai/ha): 5 (Herbicidal effect or phytotoxicity of at least 50% and less than 60%)

CNc1cnn(-c2cccc(C(F)(F)F)c2)c(=O)c1Cl [Norflurazon]
phytotoxicity GLXMA (soybean (GLXMA) [9]; 400 gai/ha): 1 (Herbicidal effect or phytotoxicity of at least 10% and less than 20%) | phytotoxicity ZEAMX (corn (ZEAMX) [11]; 400 gai/ha): 9 (Herbicidal effect or phytotoxicity of at least 90% and less than 100%)

C[n+]1ccc(-c2cc[n+](C)cc2)cc1 [Paraquat]
phytotoxicity GLXMA (soybean (GLXMA) [7]; 500 gai/ha): 10 (Herbicidal effect or phytotoxicity of 100%) | phytotoxicity ZEAMX (corn (ZEAMX) [8]; 500 gai/ha): 6 (Herbicidal effect or phytotoxicity of at least 60% and less than 70%)

O=C(Nc1ccc(F)cc1)c1cccc(Oc2cccc(C(F)(F)F)c2)n1 [Picolinafen]
herbicidal effect STEME (common chickweed (STEME) [2]; 16 gai/ha): 5 (Herbicidal effect or phytotoxicity of at least 50% and less than 60%) | herbicidal effect VERPE ([4]; 16 gai/ha): 6 (Herbicidal effect or phytotoxicity of at least 60% and less than 70%) | phytotoxicity TRZAW (wheat (TRZAW) [12]; 16 gai/ha): 0 (Herbicidal effect or phytotoxicity of at least 0% and less than 10%)

CCCN(CCC)C(=O)SCc1ccccc1 [Prosulfocarb]
herbicidal effect ECHCG (barnyardgrass (ECHCG); 1600 gai/ha): 2 (Herbicidal effect or phytotoxicity of at least 20% and less than 30%) | herbicidal effect STEME (common chickweed (STEME) [1]; 1600 gai/ha): 5 (Herbicidal effect or phytotoxicity of at least 50% and less than 60%) | herbicidal effect CHEAL ([5]; 1600 gai/ha): 5 (Herbicidal effect or phytotoxicity of at least 50% and less than 60%)

CCOC(=O)C(C)Oc1ccc(Oc2cnc3cc(Cl)ccc3n2)cc1 (stereo not shown) [Quizalofop-ethyl]
phytotoxicity GLXMA (soybean (GLXMA) [7]; 25 gai/ha): 0 (Herbicidal effect or phytotoxicity of at least 0% and less than 10%) | phytotoxicity ZEAMX (corn (ZEAMX) [8]; 25 gai/ha): 10 (Herbicidal effect or phytotoxicity of 100%)

CCC/C(=N\OCC)C1=C(O)CC(CC(C)SCC)CC1=O (stereo not shown) [Sethoxydim]
phytotoxicity GLXMA (soybean (GLXMA) [7]; 100 gai/ha): 0 (Herbicidal effect or phytotoxicity of at least 0% and less than 10%) | phytotoxicity ZEAMX (corn (ZEAMX) [8]; 100 gai/ha): 9 (Herbicidal effect or phytotoxicity of at least 90% and less than 100%)

CS(=O)(=O)c1ccc(C(=O)C2C(=O)CCCC2=O)c(Cl)c1 [Sulcotrione]
phytotoxicity against corn ZEAMX (corn (ZEAMX) [6]; 1000 gai/ha): 1 (Herbicidal effect or phytotoxicity of at least 10% and less than 20%) | phytotoxicity GLXMA (soybean (GLXMA) [7]; 25 gai/ha): 6 (Herbicidal effect or phytotoxicity of at least 60% and less than 70%) | phytotoxicity ZEAMX (corn (ZEAMX) [8]; 25 gai/ha): 0 (Herbicidal effect or phytotoxicity of at least 0% and less than 10%)

CC(C)N(C(=O)SCC(Cl)=C(Cl)Cl)C(C)C [Triallate]
phytotoxicity TRZAW (wheat (TRZAW) [13]): 0 (Herbicidal effect or phytotoxicity of at least 0% and less than 10%) | herbicidal effect LOLMU (italian ryegrass (LOLMU); 1000 gai/ha): 2 (Herbicidal effect or phytotoxicity of at least 20% and less than 30%) | herbicidal effect STEME (common chickweed (STEME) [3]; 1000 gai/ha): 2 (Herbicidal effect or phytotoxicity of at least 20% and less than 30%)

CCCN(CCC)c1c([N+](=O)[O-])cc(C(F)(F)F)cc1[N+](=O)[O-] [Trifluralin]
herbicidal effect STEME (common chickweed (STEME) [2]; 250 gai/ha): 10 (Herbicidal effect or phytotoxicity of 100%) | herbicidal effect VERPE ([4]; 250 gai/ha): 7 (Herbicidal effect or phytotoxicity of at least 70% and less than 80%) | phytotoxicity TRZAW (wheat (TRZAW) [12]; 250 gai/ha): 0 (Herbicidal effect or phytotoxicity of at least 0% and less than 10%)

Reference: patent US8283291B2, “Herbicidal composition” (Kumiai Chemical Industry Co., Ltd., priority 2006, dated 2012)
